Tested on in one data set: not listed separately
Kind of data set: Half life in rat at 5 mg/kg, po. The format is ADME, organism-based. Set-up: dose 5 mg/kg, route oral. Particulars: in vivo.
Regarding `O=S(=O)(Nc1nc2cc(Cl)ccc2o1)c1ccc2ccccc2c1`, the half-life was 7.5 h.

Another data set concerns the target T1, Fructose-1,6-bisphosphatase 1 (Homo sapiens, UniProt P09467).
T1 sequence (P09467 whole entry): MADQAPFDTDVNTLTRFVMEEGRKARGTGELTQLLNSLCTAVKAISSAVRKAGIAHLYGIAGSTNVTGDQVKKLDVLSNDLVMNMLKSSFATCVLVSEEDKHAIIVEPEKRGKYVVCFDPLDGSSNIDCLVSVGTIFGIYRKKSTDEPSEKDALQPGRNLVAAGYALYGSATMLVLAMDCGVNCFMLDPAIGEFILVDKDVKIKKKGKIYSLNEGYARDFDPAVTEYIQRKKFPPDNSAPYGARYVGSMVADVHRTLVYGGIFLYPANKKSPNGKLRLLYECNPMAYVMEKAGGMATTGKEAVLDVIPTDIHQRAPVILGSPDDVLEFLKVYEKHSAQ
Kind of data set: Inhibition of human FBPase1.
Conditions: not given
On to `COc1cc(-c2ccc(N)cc2)c2oc(NS(=O)(=O)c3cc(Cl)ccc3Cl)nc2c1`, for which the IC50 is 1.3 µM. That is a single-digit micromolar value. Same read-out and setting: as for `Cc1ccc2oc(NS(=O)(=O)c3cc(Cl)ccc3Cl)nc2c1`, the figure is 6.4 µM. Same read-out and setting: as for `O=S(=O)(Nc1nc2cc(Cl)ccc2o1)c1c(Cl)cccc1Cl`, the figure is over 50 µM.

Regarding `O=S(=O)(Nc1nc2cc(Cl)ccc2o1)c1cccs1`, the IC50 was 13 µM. This lies in the double-digit micromolar range.

In turn, `COc1cc(-c2cccc(O)c2)c2oc(NS(=O)(=O)c3cc(Cl)ccc3Cl)nc2c1` returned an IC50 of 1.7 µM. On the same count and under the same terms, in the case of `O=S(=O)(Nc1nc2c(I)cccc2o1)c1cc(Cl)ccc1Cl` it was over 50 µM. The same measure, in the same setting: in the case of `O=S(=O)(Nc1nc2cc(Cl)ccc2o1)c1cccc(-c2ccccc2)c1` it was 9.8 µM; in that of `Cn1cnc(S(=O)(=O)Nc2nc3cc(Cl)ccc3o2)c1`, 9.4 µM; in that of `O=S(=O)(Nc1nc2cc(Cl)ccc2o1)c1ccccc1-c1ccccc1`, 3.8 µM. The same measure, in the same setting: as for `COc1ccc2nc(NS(=O)(=O)c3cc(Cl)ccc3Cl)oc2c1`, the figure is 8 µM.

Consider `Cc1cccc2oc(NS(=O)(=O)c3cc(Cl)ccc3Cl)nc12`, for which it took 55 µM to reach half-maximal inhibition (IC50). The same measure, in the same setting: as for `COc1cc(-c2cccc(CN)c2)c2oc(NS(=O)(=O)c3cc(Cl)ccc3Cl)nc2c1`, the figure is 2.6 µM; as for `O=[N+]([O-])c1cccc(S(=O)(=O)Nc2nc3cc(Cl)ccc3o2)c1`, 1.8 µM; as for `Cc1cccc(Cl)c1S(=O)(=O)Nc1nc2cc(Cl)ccc2o1`, over 50 µM.

Molecule `N#Cc1ccccc1S(=O)(=O)Nc1nc2cc(Cl)ccc2o1` displayed a concentration for half-maximal inhibition (IC50) of 6 µM. On the same count and under the same terms, in the case of `O=S(=O)(Nc1nc2cc(-c3ccoc3)ccc2o1)c1cc(Cl)ccc1Cl` it was 4 µM; in that of `O=S(=O)(Nc1nc2cc(Cl)ccc2o1)c1ccccc1`, 7.7 µM; in that of `O=S(=O)(Nc1nc2cc(Cl)ccc2o1)c1ccccc1Br`, 6.5 µM. As for `O=S(=O)(Nc1nc2cc(Cl)ccc2o1)c1ccc2ccccc2c1`, the midpoint of inhibition, the IC50, lay at 2.5 µM. Still for that read-out and setting: as for `O=S(=O)(Nc1nc2cc(Cl)ccc2o1)c1cccc(Cl)c1`, the figure is 1.3 µM; as for `O=S(=O)(Nc1nc2cc(Cl)ccc2o1)c1ccc(F)cc1`, 2.8 µM.

`CC(C)(C)c1ccc2oc(NS(=O)(=O)c3cc(Cl)ccc3Cl)nc2c1` had an IC50 of 32 µM. Against the preceding molecule, the IC50 is about 11-fold higher. With `CCCCS(=O)(=O)Nc1nc2cc(Cl)ccc2o1`, the IC50 is over 50 µM. Still for that read-out and setting: in the case of `O=S(=O)(Nc1nc2cc(Cl)ccc2o1)c1cc(Cl)ccc1Cl` it was 3.4 µM; in that of `Cc1ccc(S(=O)(=O)Nc2nc3cc(Cl)ccc3o2)cc1`, 6.2 µM; in that of `O=S(=O)(Nc1nc2cc(Cl)ccc2o1)c1ccc2cc3ccccc3cc2c1`, 3.4 µM. Still for that read-out and setting: in the case of `COc1cc(-c2ccc(O)cc2)c2oc(NS(=O)(=O)c3cc(Cl)ccc3Cl)nc2c1` it was 1.8 µM; in that of `CC(C)(C)c1ccc(COc2cccc(S(=O)(=O)Nc3nc4cc(Cl)ccc4o3)c2)cc1`, over 50 µM; in that of `O=S(=O)(Nc1nc2c(C3=CCNC=C3)cccc2o1)c1cc(Cl)ccc1Cl`, over 50 µM.

For `CCCC(=O)Nc1ccc(S(=O)(=O)Nc2nc3cc(Cl)ccc3o2)cc1`, the IC50 was found to be 12 µM. Same read-out and setting: in the case of `O=S(=O)(Nc1nc2cc(Cl)ccc2o1)c1ccc(-c2ccoc2)cc1` it was 6.7 µM; in that of `O=S(=O)(Nc1nc2ccc(Cl)cc2o1)c1cc(Cl)ccc1Cl`, 8.1 µM.

Take `Cc1ccc2nc(NS(=O)(=O)c3cc(Cl)ccc3Cl)oc2c1`: it took 10 µM to reach half-maximal inhibition (IC50). The same measure, in the same setting: as for `CC(C)(C)c1ccc(S(=O)(=O)Nc2nc3cc(Cl)ccc3o2)cc1`, the figure is 24 µM; as for `O=S(=O)(Nc1nc2cc(Cl)ccc2o1)c1ccc(-c2ccccc2)cc1`, 4 µM; as for `O=S(=O)(Nc1nc2cc(Br)ccc2o1)c1cc(Cl)ccc1Cl`, 1.9 µM. As for `CS(=O)(=O)Nc1nc2cc(Cl)ccc2o1`, the IC50 is over 50 µM. Molecule `O=S(=O)(Nc1nc2cc(Cl)ccc2o1)c1ccc(OC(F)(F)F)cc1` came in with an IC50 of 7.8 µM. This counts as single-digit micromolar.

`O=S(=O)(Nc1nc2cc(Cl)ccc2o1)c1ccccc1-n1ccnc1` gave an IC50 of 23 µM.

Tested on in the next data set: not listed separately
Description: Oral bioavailability in rat at 5 mg/kg, po. The format is ADME, organism-based. Particulars: in vivo.
Molecule `O=S(=O)(Nc1nc2cc(Cl)ccc2o1)c1ccc2ccccc2c1` had a bioavailability of over 100%.

Tested on in another data set: not listed separately
Description: Plasma clearance in rat at 5 mg/kg. The format is ADME, organism-based.
Conditions: not given
On the set-up: dose 5 mg/kg.
Take `O=S(=O)(Nc1nc2cc(Cl)ccc2o1)c1ccc2ccccc2c1`: the clearance is 0.667 mL/min/kg.

For the origin of these results see ChEMBL document CHEMBL1146130, “Benzoxazole benzenesulfonamides as allosteric inhibitors of fructose-1,6-bisphosphatase” (Bioorg Med Chem Lett, 2006).
